# Values quoted from earlier work in patent publication US11400098B2, “Method of treating microbial infections” (priority 2011, dated 2022).
# Tested on: S. epidermidis
# Conditions: background statement
compound,measurement,value
"O=C(OOC(=O)c1ccccc1)c1ccccc1 [BPO, benzoyl peroxide]",effect on growth of S. epidermidis,strongly suppresses the growth
